Counter-ions that a name gives are not always drawn.
system: human neurons; test: Iron (FeSO4) mediated neurotoxicity screening, MAP-2 positive neurons counted; type: cell-based; settings: Homo sapiens, Neuron; drug 10 μM 1 h before FeSO4 25 or 50 μM; MAP-2 neurons after 24 h; read-out: Drug % control (mean): number of neurons normalized to untreated control
Method: Human neurons were isolated from brain tissues of therapeutically aborted 15-20 week old fetuses, in accordance with ethics approval of the University of Calgary ethics committee, after written informed consent of the pregnant donors. Neurons were isolated as previously described (Vecil et al., 2000) brain specimens were washed in phosphate buffered saline (PBS) to remove blood, followed by removal of meninges. […] Thereafter, the digestion was stopped by addition of 4 ml fetal calf serum (FCS). […] Cells were cultured in feeding medium of minimal essential medium (MEM) supplemented with 10% fetal bovine serum (FBS), 1 μM sodium pyruvate, 10 μM glutamine, 1× non-essential amino acids, 0.1% dextrose and 1% penicillin/streptomycin (all culture supplements from Invitrogen, Burlington, Canada). […] For experiments, the neuron-enriched cultures were retrypsinized and cells were plated in poly-L-ornithine pre-coated 96-well plates at a density of 100,000 cells/well in 100 μl of the complete medium supplemented with cytosine arabinoside. […] All conditions were performed in quadruplicates. A day later cells were fixed using 4% paraformaldehyde (PFA) and stored in PBS in 4° C.
Briefly, there were 80 compounds located in specific wells on each plate (e. g. B07). […] Each compound was supplied at a concentration of 10 mM dissolved in DMSO.
After filtering with a 0.2 μm filter, FeSO4 was added to cells in a final concentration of 25-50 μM in a volume of 50 μl medium to the cells. Rotenone was dissolved in dimethyl sulfoxide (DMSO) and used in a final concentration of 10 μM.
Staining was performed at room temperature. A blocking buffer was first introduced for 1 h followed by incubation with primary antibody overnight in 4° C.
Cell nuclei were stained with Hoechst S769121 (nuclear yellow). Cells were stored in 4° C. in the dark before imaging.
Images were taken using the automated ImageXpress® imaging system (Molecular Devices, Sunnyvale, Calif.) through a 10x objective microscope lens, displaying 4 or 9 sites per well. […] Cells were defined according to fluorescence intensity and size at different wavelengths. Data from all sites per well were averaged to one data point.
Neurons were pre-incubated with each compound for 1 h followed by application of FeSO4.

In order of rising viability at 10 µM:
1. NNC(=O)c1ccncc1 [ISONIAZID]  2.41%
2. COc1ccccc1OCC(O)CO (centres unmarked) [GUAIFENESIN]  3.28%
3. COc1ccc2c(c1)[C@]13CCCC[C@@H]1[C@H](C2)N(C)CC3 [DEXTROMETHORPHAN HYDROBROMIDE]  3.49%
4. CN1CCN(CCCN2c3ccccc3Sc3ccc(C(F)(F)F)cc32)CC1 [TRIFLUOPERAZINE HYDROCHLORIDE]  4.42%
5. Cn1cnc([N+](=O)[O-])c1Sc1ncnc2nc[nH]c12 [AZATHIOPRINE]  4.65%
6. CCCNC(=O)NS(=O)(=O)c1ccc(Cl)cc1 [CHLORPROPAMIDE]  5.32%
7. CCCCNC(=O)NS(=O)(=O)c1ccc(C)cc1 [TOLBUTAMIDE]  9.09%
8. Clc1ccccc1C(c1ccccc1)(c1ccccc1)n1ccnc1 [CLOTRIMAZOLE]  12.4%
9. CC(C[N+](C)(C)C)OC(N)=O (centres unmarked) [BETHANECHOL CHLORIDE]  16%
10. O=c1n(CCCN2CCN(c3cccc(Cl)c3)CC2)nc2ccccn12 [TRAZODONE HYDROCHLORIDE]  25.9%
11. Cc1ncc([N+](=O)[O-])n1CCO [METRONIDAZOLE]  27.1%
12. Cc1onc(-c2ccccc2Cl)c1C(=O)N[C@@H]1C(=O)N2[C@@H]1SC(C)(C)[C@@H]2C(=O)O [CLOXACILLIN SODIUM]  28.4%
13. CC(=O)S[C@@H]1CC2=CC(=O)CC[C@]2(C)[C@H]2CC[C@@]3(C)[C@@H](CC[C@@]34CCC(=O)O4)[C@H]12 [SPIRONOLACTONE]  37.1%
14. Cc1noc(NS(=O)(=O)c2ccc(N)cc2)c1C [SULFISOXAZOLE]  38.3%
15. O=C1CC[C@@]2(O)[C@H]3Cc4ccc(O)c5c4[C@@]2(CCN3CC2CC2)[C@H]1O5 [NALTREXONE HYDROCHLORIDE]  39.5%
16. CC(C)NCC(O)COc1ccc(CC(N)=O)cc1 (centres unmarked) [ATENOLOL]  43.4%
17. Nc1ccc(C(=O)O)cc1 [POTASSIUM p-AMINOBENZOATE]  44.5%
18. CC1(C)NC(=O)N(c2ccc([N+](=O)[O-])c(C(F)(F)F)c2)C1=O [NILUTAMIDE]  48.7%
19. CN(C)C(=O)C(CCN1CCC(O)(c2ccc(Cl)cc2)CC1)(c1ccccc1)c1ccccc1 [LOPERAMIDE HYDROCHLORIDE]  55.5%
20. COCCOC(=O)C1=C(C)NC(C)=C(C(=O)OC(C)C)C1c1cccc([N+](=O)[O-])c1 (centres unmarked) [NIMODIPINE]  62.8%
21. Cc1c(OCC(F)(F)F)ccnc1C[S+]([O-])c1nc2ccccc2[nH]1 (centres unmarked) [LANSOPRAZOLE]  63.9%
22. NC(=O)c1cnccn1 [PYRAZINAMIDE]  67.2%
23. CC(=O)Oc1ccccc1C(=O)O [ASPIRIN]  68.2%
24. C=CCN1CC[C@]23c4c5ccc(O)c4O[C@H]2C(=O)CC[C@@]3(O)[C@H]1C5 [NALOXONE HYDROCHLORIDE]  69.5%
25. CCCC1O[C@@H]2C[C@H]3[C@@H]4CCC5=CC(=O)C=C[C@]5(C)[C@H]4[C@@H](O)C[C@]3(C)[C@]2(C(=O)CO)O1 (some centres unmarked) [BUDESONIDE]  70%
26. COCCc1ccc(OCC(O)CNC(C)C)cc1 (centres unmarked) [METOPROLOL TARTRATE]  71.5%
27. CCC1(C)CC(=O)NC1=O (centres unmarked) [ETHOSUXIMIDE]  74.3%
28. CNCCC(Oc1ccc(C(F)(F)F)cc1)c1ccccc1 (centres unmarked) [FLUOXETINE]  81.4%
29. CC(=O)Oc1ccc(C(c2ccc(OC(C)=O)cc2)c2ccccn2)cc1 [BISACODYL]  93.3%

same assay, conditions: drug 10 μM 1 h before FeSO4 25 or 50 μM; MAP-2 neurons after 24 h

In order of rising “Drug % control (mean): number of neurons normalized to untreated control” value:
1. CRESOL  6.04%
2. CN(C)CC[C@@H](c1ccc(Cl)cc1)c1ccccn1.O=C(O)/C=C\C(=O)O [CHLORPHENIRAMINE(S) MALEATE]  52.32%
3. CC(C)c1c(C(=O)Nc2ccccc2)c(-c2ccccc2)c(-c2ccc(F)cc2)n1CC[C@@H](O)C[C@@H](O)CC(=O)[O-].CC(C)c1c(C(=O)Nc2ccccc2)c(-c2ccccc2)c(-c2ccc(F)cc2)n1CC[C@@H](O)C[C@@H](O)CC(=O)[O-].[Ca+2] [ATORVASTATIN CALCIUM]  68.87%
